Reference: ChEMBL document CHEMBL1201862, “PubChem BioAssay data set” (2004)
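Briefly, cells in 96-well plates were exposed to five compound concentrations for 48 h, and endpoints were estimated by linear interpolation. GI50 marks 50% less growth.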 The source made the active and inactive calls. Rule as the data show it: active = GI50 up to about 1.1 µM and inactive = higher.

Columns and labels:
Assay in all cases: NCI anticancer screen, dose series, 48 h
786-0 = tested on: 786-0
A549 = tested on: A549
T47D = tested on: T47D
SF-539 = tested on: SF-539
OVCAR-3 = tested on: OVCAR-3
HCC 2998 = tested on: HCC 2998
HT-29 = tested on: HT-29
CCRF-CEM = tested on: CCRF-CEM
NCI-H23 = tested on: NCI-H23
SK-MEL-2 = tested on: SK-MEL-2
UO-31 = tested on: UO-31
SF-295 = tested on: SF-295
MDA-MB-435 = tested on: MDA-MB-435
SK-MEL-5 = tested on: SK-MEL-5
RXF 393 = tested on: RXF 393
NCI-H522 = tested on: NCI-H522
CAKI-1 = tested on: CAKI-1
HOP-62 = tested on: HOP-62
TK-10 = tested on: TK-10
SN12C = tested on: SN12C
MDA-MB-231 = tested on: MDA-MB-231
COLO 205 = tested on: COLO 205
SF-268 = tested on: SF-268
DU-145 = tested on: DU-145
M14 = tested on: M14
BT-549 = tested on: BT-549
MCF7 = tested on: MCF7
Hs-578T = tested on: Hs-578T
SR = tested on: SR
A498 = tested on: A498
SW-620 = tested on: SW-620
Malme-3M = tested on: Malme-3M
LOX IMVI = tested on: LOX IMVI
HCT-15 = tested on: HCT-15
HL-60 = tested on: HL-60
PC-3 = tested on: PC-3
OVCAR-8 = tested on: OVCAR-8
SNB-75 = tested on: SNB-75
HOP-92 = tested on: HOP-92
MOLT-4 = tested on: MOLT-4
NCI/ADR-RES = tested on: NCI/ADR-RES
SNB-19 = tested on: SNB-19
OVCAR-5 = tested on: OVCAR-5
EKVX = tested on: EKVX
SK-OV-3 = tested on: SK-OV-3
RPMI-8226 = tested on: RPMI-8226
KM12 = tested on: KM12
IGROV-1 = tested on: IGROV-1
UACC-62 = tested on: UACC-62
U-251 = tested on: U-251
ACHN = tested on: ACHN
OVCAR-4 = tested on: OVCAR-4
UACC-257 = tested on: UACC-257
HCT-116 = tested on: HCT-116
SK-MEL-28 = tested on: SK-MEL-28
NCI-H226 = tested on: NCI-H226
K562 = tested on: K562
MDA-N = tested on: MDA-N
NCI-H460 = tested on: NCI-H460

C=C1C(=O)OC2CC(C)C3(O)CCC(=O)C3(C)CC12 (configuration not stated) was tested, and the GI50 (786-0) was 21.3 µM (inactive), the GI50 (A549) was 52.4 µM (inactive) and the GI50 (T47D) was 40.4 µM (inactive). The GI50 (SF-539) was 16.1 µM (inactive), the GI50 (OVCAR-3) was 16 µM (inactive) and the GI50 (HCC 2998) was 23 µM (inactive). The GI50 (HT-29) was 20.2 µM (inactive), the GI50 (CCRF-CEM) was 33.8 µM (inactive) and the GI50 (NCI-H23) was 31.7 µM (inactive). For the same molecule, the GI50 (SK-MEL-2) was 22.2 µM (inactive), the GI50 (UO-31) was 28.2 µM (inactive) and the GI50 (SF-295) was 40.5 µM (inactive). The GI50 (MDA-MB-435) was 39.7 µM (inactive), the GI50 (SK-MEL-5) was 36.6 µM (inactive) and the GI50 (RXF 393) was 21.8 µM (inactive). The GI50 (NCI-H522) was 14.3 µM (inactive), the GI50 (CAKI-1) was 17.5 µM (inactive) and the GI50 (HOP-62) was 28.2 µM (inactive). The GI50 (TK-10) was 26.7 µM (inactive), the GI50 (SN12C) was 19.1 µM (inactive) and the GI50 (MDA-MB-231) was 26 µM (inactive). The GI50 (COLO 205) was 40 µM (inactive), the GI50 (SF-268) was 18.5 µM (inactive) and the GI50 (DU-145) was 31.9 µM (inactive). The GI50 (M14) was 22 µM (inactive), the GI50 (BT-549) was 44.2 µM (inactive) and the GI50 (MCF7) was 29.2 µM (inactive). For the same molecule, the GI50 (Hs-578T) was 25.9 µM (inactive), the GI50 (SR) was 23.2 µM (inactive) and the GI50 (A498) was 25.8 µM (inactive). The GI50 (SW-620) was 42.1 µM (inactive), the GI50 (Malme-3M) was 19.5 µM (inactive) and the GI50 (LOX IMVI) was 31.8 µM (inactive). The GI50 (HCT-15) was 14.9 µM, the GI50 (HL-60) was 18 µM (inactive) and the GI50 (PC-3) was 49 µM (inactive). The GI50 (OVCAR-8) was 24.6 µM (inactive), the GI50 (SNB-75) was 20.2 µM (inactive) and the GI50 (HOP-92) was 57.1 µM (inactive). For the same molecule, the GI50 (MOLT-4) was 22.2 µM (inactive), the GI50 (NCI/ADR-RES) was 32.4 µM (inactive) and the GI50 (SNB-19) was 18.7 µM (inactive). For the same molecule, the GI50 (OVCAR-5) was 23.6 µM (inactive), the GI50 (EKVX) was 27.2 µM (inactive) and the GI50 (SK-OV-3) was 46.8 µM (inactive). The GI50 (RPMI-8226) was 14.8 µM (inactive), the GI50 (KM12) was 20.7 µM (inactive) and the GI50 (IGROV-1) was 23.8 µM (inactive). For the same molecule, the GI50 (UACC-62) was 44.3 µM (inactive), the GI50 (U-251) was 38.1 µM (inactive) and the GI50 (ACHN) was 17.5 µM (inactive). The GI50 (OVCAR-4) was 18.7 µM (inactive), the GI50 (UACC-257) was 43.7 µM (inactive) and the GI50 (HCT-116) was 31.1 µM (inactive). For the same molecule, the GI50 (SK-MEL-28) was 54.8 µM (inactive) and the GI50 (NCI-H226) was 64 µM (inactive).

In the case of COC(CCC[N+](C)(C)C)CC[N+](C)(C)C (configuration not stated), the GI50 (786-0) is reported as > 100 µM (inactive), the GI50 (A549) is reported as > 100 µM (inactive) and the GI50 (SF-539) is reported as > 100 µM (inactive). For the same molecule, the GI50 (OVCAR-3) was > 100 µM (inactive), the GI50 (HCC 2998) was > 100 µM (inactive) and the GI50 (HT-29) was > 100 µM (inactive). The GI50 (CCRF-CEM) was > 100 µM (inactive), the GI50 (NCI-H23) was > 100 µM (inactive) and the GI50 (UO-31) was > 100 µM (inactive). The GI50 (SF-295) was > 100 µM (inactive), the GI50 (K562) was > 100 µM (inactive) and the GI50 (SK-MEL-5) was > 100 µM (inactive). For the same molecule, the GI50 (RXF 393) was > 100 µM (inactive), the GI50 (NCI-H522) was > 100 µM (inactive) and the GI50 (CAKI-1) was > 100 µM (inactive). The GI50 (HOP-62) was > 100 µM (inactive), the GI50 (TK-10) was > 100 µM (inactive) and the GI50 (SN12C) was > 100 µM (inactive). The GI50 (COLO 205) was > 100 µM (inactive), the GI50 (SF-268) was > 100 µM (inactive) and the GI50 (DU-145) was > 100 µM (inactive). For the same molecule, the GI50 (M14) was > 100 µM (inactive), the GI50 (BT-549) was > 100 µM (inactive) and the GI50 (MCF7) was > 100 µM (inactive). For the same molecule, the GI50 (SR) was > 100 µM (inactive), the GI50 (SW-620) was > 100 µM (inactive) and the GI50 (Malme-3M) was > 100 µM (inactive). The GI50 (HCT-15) was over 100 µM, the GI50 (HL-60) was > 100 µM (inactive) and the GI50 (PC-3) was > 100 µM (inactive). For the same molecule, the GI50 (OVCAR-8) was > 100 µM (inactive), the GI50 (SNB-75) was > 100 µM (inactive) and the GI50 (MOLT-4) was > 100 µM (inactive). For the same molecule, the GI50 (NCI/ADR-RES) was > 100 µM (inactive), the GI50 (SNB-19) was > 100 µM (inactive) and the GI50 (OVCAR-5) was > 100 µM (inactive). The GI50 (EKVX) was > 100 µM (inactive), the GI50 (SK-OV-3) was > 100 µM (inactive) and the GI50 (RPMI-8226) was > 100 µM (inactive). The GI50 (IGROV-1) was > 100 µM (inactive), the GI50 (MDA-N) was > 100 µM (inactive) and the GI50 (UACC-62) was > 100 µM (inactive). For the same molecule, the GI50 (U-251) was > 100 µM (inactive), the GI50 (ACHN) was > 100 µM (inactive) and the GI50 (OVCAR-4) was > 100 µM (inactive). For the same molecule, the GI50 (UACC-257) was > 100 µM (inactive), the GI50 (NCI-H460) was > 100 µM (inactive) and the GI50 (HCT-116) was > 100 µM (inactive). The GI50 (SK-MEL-28) was > 100 µM (inactive) and the GI50 (NCI-H226) was > 100 µM (inactive).

For COc1c2occc2cc2ccc(=O)oc12 [METHOXSALEN], the GI50 (786-0) was > 100 µM (inactive), the GI50 (A549) was > 100 µM (inactive) and the GI50 (T47D) was > 100 µM (inactive). The GI50 (SF-539) was > 100 µM (inactive), the GI50 (OVCAR-3) was > 100 µM (inactive) and the GI50 (HCC 2998) was > 100 µM (inactive). For the same molecule, the GI50 (CCRF-CEM) was > 100 µM (inactive), the GI50 (NCI-H23) was > 100 µM (inactive) and the GI50 (SK-MEL-2) was > 100 µM (inactive). The GI50 (UO-31) was > 100 µM (inactive), the GI50 (SF-295) was > 100 µM (inactive) and the GI50 (K562) was > 100 µM (inactive). For the same molecule, the GI50 (MDA-MB-435) was > 100 µM (inactive), the GI50 (SK-MEL-5) was > 100 µM (inactive) and the GI50 (CAKI-1) was > 100 µM (inactive). For the same molecule, the GI50 (HOP-62) was > 100 µM (inactive), the GI50 (TK-10) was > 100 µM (inactive) and the GI50 (SN12C) was > 100 µM (inactive). The GI50 (MDA-MB-231) was > 100 µM (inactive), the GI50 (COLO 205) was > 100 µM (inactive) and the GI50 (DU-145) was > 100 µM (inactive). For the same molecule, the GI50 (M14) was > 100 µM (inactive), the GI50 (BT-549) was > 100 µM (inactive) and the GI50 (MCF7) was > 100 µM (inactive). The GI50 (SR) was 90.6 µM (inactive), the GI50 (A498) was > 100 µM (inactive) and the GI50 (SW-620) was > 100 µM (inactive). The GI50 (LOX IMVI) was > 100 µM (inactive), the GI50 (HCT-15) was over 100 µM and the GI50 (HL-60) was 90.2 µM (inactive). For the same molecule, the GI50 (PC-3) was > 100 µM (inactive), the GI50 (HOP-92) was > 100 µM (inactive) and the GI50 (MOLT-4) was > 100 µM (inactive). The GI50 (SNB-19) was > 100 µM (inactive), the GI50 (OVCAR-5) was > 100 µM (inactive) and the GI50 (SK-OV-3) was > 100 µM (inactive). For the same molecule, the GI50 (RPMI-8226) was > 100 µM (inactive), the GI50 (MDA-N) was > 100 µM (inactive) and the GI50 (UACC-62) was 34.9 µM (inactive). For the same molecule, the GI50 (U-251) was > 100 µM (inactive), the GI50 (ACHN) was > 100 µM (inactive) and the GI50 (OVCAR-4) was > 100 µM (inactive). The GI50 (UACC-257) was > 100 µM (inactive), the GI50 (NCI-H460) was 62.7 µM (inactive) and the GI50 (HCT-116) was > 100 µM (inactive). The GI50 (SK-MEL-28) was > 100 µM (inactive).
